Test results published in ChEMBL document CHEMBL1201862, “PubChem BioAssay data set” (2004).
The source made the active and inactive calls.

Test system: not listed separately
Experiment: Luminescence Cell-Based Dose Response HTS to Identify Activators of Luciferase Translation or Activity in H4 […] Cells. [Related pubchem assays: 1829 (Project Summary), 1814 (Primary HTS)]
Type: functional
Conditions: not given

**Q.** For `O=S(=O)(Nc1ccc2[nH]c(-c3ccco3)nc2c1)c1ccccc1`, which EC50 is on record?
**A.** 36.8 µM (active)

**Q.** Which EC50 does the source give for `CCCCc1nc2cc(C(=O)N(C)C3CCOCC3)ccc2o1` here?
**A.** 15 µM (active)

**Q.** For `CCOCC(=O)Nc1nnc(C2CCCCC2)s1`, which EC50 is on record?
**A.** 83 µM (active)

**Q.** Which EC50 does the source give for `COc1ccc(NC(=O)Cn2nnc(-c3ccccc3NC(=O)c3cccs3)n2)cc1` here?
**A.** 3.68 µM (active)

**Q.** For `CCN1C(=O)/C(=C\N2CCCCCC2)SC1=S`, which EC50 is on record?
**A.** 7.47 µM (active)

**Q.** Which EC50 does the source give for `CCn1c(O)cc(=O)nc1SCC(=O)Nc1ccc(C)cc1` here?
**A.** > 120 µM (not active)

**Q.** With `Cc1sc2ncnc(N3CCC(C(=O)Nc4nc5ccc(Cl)cc5s4)CC3)c2c1C` as the compound, how does the EC50 read?
**A.** 19.2 µM (active)

**Q.** For `Sc1nnc(Cn2c(-c3ccccn3)nc3ccccc32)n1-c1ccc2c(c1)OCCO2`, which EC50 is on record?
**A.** 14.9 µM (active)

**Q.** With `COc1ccc(-n2nc(C(=O)NCC(=O)N3CCN(c4ccccc4F)CC3)c3ccccc3c2=O)cc1` as the compound, how does the EC50 read?
**A.** 8.08 µM (active)

**Q.** For `CCOC(=O)c1cnn(-c2ncnc3c2cnn3C)c1N`, which EC50 is on record?
**A.** 10.9 µM (active)

Test system: Streptococcus sp. 'group A'
Experiment: Streptococcus pyogenes SK(-)GAS viability under kanamycin – luminescence, BacTiterGlo, confirmation, counter-screen for streptokinase expression inhibitor project, dose response (AID 1900)
Type: functional, organism-based
Conditions: not given

**Q.** Which EC50 does the source give for `CC1(C)c2ccccc2-n2c1cc1oc(=O)cc(O)c1c2=O` here?
**A.** > 150 µM (not active)

Test system: Streptococcus
Experiment: GAS UMAA2166 growth inhibition – luminescence, BacTiterGlo, counter-screen for streptokinase expression inhibitor project, dose response (AID 1915);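 note: potency for reduction of bacterial viability or growth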
Type: functional, organism-based
Conditions: not given

**Q.** With `CC1(C)c2ccccc2-n2c1cc1oc(=O)cc(O)c1c2=O` as the compound, how does the EC50 read?
**A.** > 150 µM (not active)

Target: Cytochrome P450 2C9 (Homo sapiens, UniProt P11712)
Conditions: not given

Sequence of Cytochrome P450 2C9 (P11712 whole entry): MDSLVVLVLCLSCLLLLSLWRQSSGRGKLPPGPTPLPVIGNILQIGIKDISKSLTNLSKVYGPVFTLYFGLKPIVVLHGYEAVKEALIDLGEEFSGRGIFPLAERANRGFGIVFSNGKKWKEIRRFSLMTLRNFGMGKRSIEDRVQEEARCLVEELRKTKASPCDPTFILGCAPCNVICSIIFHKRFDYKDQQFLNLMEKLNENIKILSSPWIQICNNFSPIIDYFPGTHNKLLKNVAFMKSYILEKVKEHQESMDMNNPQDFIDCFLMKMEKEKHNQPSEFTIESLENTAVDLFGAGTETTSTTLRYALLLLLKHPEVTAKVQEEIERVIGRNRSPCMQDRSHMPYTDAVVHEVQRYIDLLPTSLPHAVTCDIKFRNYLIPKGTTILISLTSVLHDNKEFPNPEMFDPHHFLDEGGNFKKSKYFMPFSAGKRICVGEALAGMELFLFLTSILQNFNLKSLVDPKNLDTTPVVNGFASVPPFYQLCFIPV

**Q.** For `Cc1c(N2C(=O)/C(=C3/C(=O)N(C)c4ccccc43)SC2=S)c(=O)n(-c2ccccc2)n1C`, which AC50 is on record?
**A.** 12.6 µM (inconclusive)

Target: T1, Carboxy-terminal domain RNA polymerase II polypeptide A small phosphatase 1 (Homo sapiens, UniProt Q9GZU7)
T1 sequence (Q9GZU7 whole entry): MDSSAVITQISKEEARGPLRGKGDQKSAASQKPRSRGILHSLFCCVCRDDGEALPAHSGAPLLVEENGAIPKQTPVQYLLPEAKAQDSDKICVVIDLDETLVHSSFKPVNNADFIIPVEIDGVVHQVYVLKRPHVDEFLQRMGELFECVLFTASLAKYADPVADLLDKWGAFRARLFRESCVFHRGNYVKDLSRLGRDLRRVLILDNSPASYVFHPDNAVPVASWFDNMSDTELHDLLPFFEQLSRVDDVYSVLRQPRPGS
Experiment: CTDSP1 inhibitors, concentration-response, biochemical, absorbance readout, ultra-high-throughput screen actives (AID 540297)
Type: functional
Conditions: not given

**Q.** With `COc1ccc(NC(=O)c2c3c(nc4ccccc24)CCC3)cc1S(=O)(=O)N1CCOCC1` as the compound, how does the IC50 read?
**A.** 3.75 µM (active)

**Q.** Which IC50 does the source give for `COc1cccc(NC(=O)CN(C)C(=O)c2cc(-c3ccco3)nc3ccccc23)c1` here?
**A.** 6.41 µM (active)

**Q.** With `COc1ccc(/C=C2\C(=O)NC(=S)N(C)C2=O)cc1C` as the compound, how does the IC50 read?
**A.** 0.632 µM (active)

**Q.** With `Cc1cccc(C(=O)NNC(=O)c2ccc(-c3ccccc3)cc2)c1` as the compound, how does the IC50 read?
**A.** 5.8 µM (active)

Target: T2, Calpain-2 catalytic subunit (Sus scrofa, UniProt P43367)
T2 sequence (P43367 whole entry): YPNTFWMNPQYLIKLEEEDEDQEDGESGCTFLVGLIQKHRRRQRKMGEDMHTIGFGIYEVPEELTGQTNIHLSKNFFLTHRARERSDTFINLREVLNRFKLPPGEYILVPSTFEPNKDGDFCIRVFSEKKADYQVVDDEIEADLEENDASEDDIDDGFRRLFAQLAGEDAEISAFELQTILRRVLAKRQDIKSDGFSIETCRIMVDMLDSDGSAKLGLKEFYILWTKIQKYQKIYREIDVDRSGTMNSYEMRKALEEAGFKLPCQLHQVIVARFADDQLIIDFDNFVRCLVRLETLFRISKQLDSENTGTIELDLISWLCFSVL
Experiment: m-calpain protease blockers, concentration series – biochemical, fluorogenic peptide substrate, dose response (AID 1420)
Type: functional
Conditions: not given

**Q.** With `CC1(C)c2ccccc2-n2c1cc1oc(=O)cc(O)c1c2=O` as the compound, how does the IC50 read?
**A.** 1.02 µM (not active)

Target: T3, Rac GTPase-activating protein 1 (Homo sapiens, UniProt Q9H0H5)
T3 sequence (Q9H0H5 whole entry): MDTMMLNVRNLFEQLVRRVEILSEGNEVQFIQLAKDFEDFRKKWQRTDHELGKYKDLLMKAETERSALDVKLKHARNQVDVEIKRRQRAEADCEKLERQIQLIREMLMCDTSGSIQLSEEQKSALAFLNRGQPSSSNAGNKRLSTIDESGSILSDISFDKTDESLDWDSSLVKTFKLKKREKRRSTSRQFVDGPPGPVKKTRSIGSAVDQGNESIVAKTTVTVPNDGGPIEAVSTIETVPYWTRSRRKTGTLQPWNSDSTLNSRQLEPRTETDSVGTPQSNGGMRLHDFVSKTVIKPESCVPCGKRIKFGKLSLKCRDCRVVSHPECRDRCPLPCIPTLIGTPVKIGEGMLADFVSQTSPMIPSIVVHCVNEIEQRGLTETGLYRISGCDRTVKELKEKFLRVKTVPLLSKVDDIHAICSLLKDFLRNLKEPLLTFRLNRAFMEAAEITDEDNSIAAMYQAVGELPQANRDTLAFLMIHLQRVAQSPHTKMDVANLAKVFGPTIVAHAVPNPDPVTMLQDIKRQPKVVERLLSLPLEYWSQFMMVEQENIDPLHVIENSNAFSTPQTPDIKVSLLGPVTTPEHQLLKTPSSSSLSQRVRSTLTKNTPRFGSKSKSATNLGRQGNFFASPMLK
Experiment: blockers of MgcRacGAP-driven Rac1 GTP hydrolysis – biochemical, ADP Hunter fluorescence, primary and confirmatory, confirmation (AID 624330)
Type: functional
Conditions: not given

**Q.** For `COc1ccc(/C=C2\C(=O)NC(=S)N(C)C2=O)cc1C`, which IC50 is on record?
**A.** 21.4 µM (active)

Target: Cytochrome P450 2D6 (Homo sapiens, UniProt P10635);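 note: CYP2D6 member of a cytochrome P450 panel assay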
Conditions: not given

Sequence of Cytochrome P450 2D6 (P10635 whole entry): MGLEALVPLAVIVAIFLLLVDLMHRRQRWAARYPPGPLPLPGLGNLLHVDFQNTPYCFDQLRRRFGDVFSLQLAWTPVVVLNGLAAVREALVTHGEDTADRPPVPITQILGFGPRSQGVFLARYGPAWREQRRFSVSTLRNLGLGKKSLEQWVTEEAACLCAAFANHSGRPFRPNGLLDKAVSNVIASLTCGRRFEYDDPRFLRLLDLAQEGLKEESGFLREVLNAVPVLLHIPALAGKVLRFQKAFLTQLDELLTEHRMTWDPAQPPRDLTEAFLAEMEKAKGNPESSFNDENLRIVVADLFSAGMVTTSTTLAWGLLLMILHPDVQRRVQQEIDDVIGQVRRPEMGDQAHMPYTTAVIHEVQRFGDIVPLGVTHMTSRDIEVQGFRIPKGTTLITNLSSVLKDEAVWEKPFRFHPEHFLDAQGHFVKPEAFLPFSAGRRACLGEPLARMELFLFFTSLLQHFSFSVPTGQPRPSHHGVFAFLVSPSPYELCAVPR

**Q.** Which AC50 does the source give for `Cc1c(N2C(=O)/C(=C3/C(=O)N(C)c4ccccc43)SC2=S)c(=O)n(-c2ccccc2)n1C` here?
**A.** 7.94 µM (inconclusive)

Target: T4, Streptokinase A (Streptococcus pyogenes serotype M1, UniProt P10520)
T4 sequence (P10520 whole entry): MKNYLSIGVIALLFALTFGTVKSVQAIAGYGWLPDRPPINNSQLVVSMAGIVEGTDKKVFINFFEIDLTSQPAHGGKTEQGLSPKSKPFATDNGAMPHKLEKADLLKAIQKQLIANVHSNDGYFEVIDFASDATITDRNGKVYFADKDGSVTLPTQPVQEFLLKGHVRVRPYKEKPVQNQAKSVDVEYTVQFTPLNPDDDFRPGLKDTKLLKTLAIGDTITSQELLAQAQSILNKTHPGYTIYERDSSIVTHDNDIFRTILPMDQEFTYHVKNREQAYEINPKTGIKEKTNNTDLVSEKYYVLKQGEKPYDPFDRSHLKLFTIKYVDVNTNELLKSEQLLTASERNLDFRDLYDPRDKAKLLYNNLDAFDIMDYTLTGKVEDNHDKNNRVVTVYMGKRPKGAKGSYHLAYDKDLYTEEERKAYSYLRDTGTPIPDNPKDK
Experiment: viability-normalized secreted streptokinase activity reduction – plasminogen activation absorbance, OD405, dose response (AID 1914);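 note: secreted streptokinase activity via plasminogen activation per viability signal from cell pellet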
Type: functional, Streptococcus pyogenes M1 GAS
Conditions: not given

**Q.** For `CC1(C)c2ccccc2-n2c1cc1oc(=O)cc(O)c1c2=O`, which EC50 is on record?
**A.** > 150 µM (not active)

Test system: H4
Experiment: Luminescence Cell-Based Dose Response HTS to Identify Activators of 5'UTR Stem-Loop Driven Prion Protein mRNA Translation in H4 Neuroglioblastoma Cells. [Related pubchem assays: 1829 (Project Summary), 1814 (Primary HTS)]
Type: functional
Conditions: Homo sapiens

**Q.** Which EC50 does the source give for `O=S(=O)(Nc1ccc2[nH]c(-c3ccco3)nc2c1)c1ccccc1` here?
**A.** 17.3 µM (active)

**Q.** With `CCCCc1nc2cc(C(=O)N(C)C3CCOCC3)ccc2o1` as the compound, how does the EC50 read?
**A.** 0.399 µM (active)

**Q.** With `CCOCC(=O)Nc1nnc(C2CCCCC2)s1` as the compound, how does the EC50 read?
**A.** > 120 µM (not active)

**Q.** For `COc1ccc(NC(=O)Cn2nnc(-c3ccccc3NC(=O)c3cccs3)n2)cc1`, which EC50 is on record?
**A.** > 120 µM (not active)

**Q.** For `CCN1C(=O)/C(=C\N2CCCCCC2)SC1=S`, which EC50 is on record?
**A.** 12.8 µM (active)

**Q.** For `CCn1c(O)cc(=O)nc1SCC(=O)Nc1ccc(C)cc1`, which EC50 is on record?
**A.** > 120 µM (not active)

**Q.** With `Cc1sc2ncnc(N3CCC(C(=O)Nc4nc5ccc(Cl)cc5s4)CC3)c2c1C` as the compound, how does the EC50 read?
**A.** 28.5 µM (active)

**Q.** With `Sc1nnc(Cn2c(-c3ccccn3)nc3ccccc32)n1-c1ccc2c(c1)OCCO2` as the compound, how does the EC50 read?
**A.** 29.5 µM (active)

**Q.** With `COc1ccc(-n2nc(C(=O)NCC(=O)N3CCN(c4ccccc4F)CC3)c3ccccc3c2=O)cc1` as the compound, how does the EC50 read?
**A.** 95.7 µM (active)

**Q.** With `CCOC(=O)c1cnn(-c2ncnc3c2cnn3C)c1N` as the compound, how does the EC50 read?
**A.** 90.5 µM (active)

Target: Cytochrome P450 3A4 (Homo sapiens, UniProt P08684);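 note: CYP3A4 tested as one member of a cytochrome P450 panel screen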
Conditions: not given

Sequence of Cytochrome P450 3A4 (P08684 whole entry): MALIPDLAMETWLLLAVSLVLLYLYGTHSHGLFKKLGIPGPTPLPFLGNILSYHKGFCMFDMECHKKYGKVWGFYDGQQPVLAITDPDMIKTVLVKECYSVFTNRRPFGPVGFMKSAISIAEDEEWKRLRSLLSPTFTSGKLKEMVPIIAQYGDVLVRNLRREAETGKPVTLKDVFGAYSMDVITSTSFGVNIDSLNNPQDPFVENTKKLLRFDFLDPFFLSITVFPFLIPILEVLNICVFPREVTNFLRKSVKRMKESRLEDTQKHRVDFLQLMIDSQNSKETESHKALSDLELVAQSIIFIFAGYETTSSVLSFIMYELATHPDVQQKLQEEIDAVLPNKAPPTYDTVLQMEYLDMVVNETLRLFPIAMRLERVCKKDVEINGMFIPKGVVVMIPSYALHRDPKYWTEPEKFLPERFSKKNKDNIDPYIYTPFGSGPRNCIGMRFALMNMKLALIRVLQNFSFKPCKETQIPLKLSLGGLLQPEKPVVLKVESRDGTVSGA

**Q.** With `Cc1c(N2C(=O)/C(=C3/C(=O)N(C)c4ccccc43)SC2=S)c(=O)n(-c2ccccc2)n1C` as the compound, how does the AC50 read?
**A.** 15.8 µM (inconclusive)

Test system: not listed separately
Experiment: Luminescence Cell-Based Dose Confirmation HTS to Identify Activators of 5'UTR Stem-Loop Driven Alpha-Synuclein mRNA Translation in H4 Neuroglioblastoma Cells. [Related pubchem assays: 1829 (Project Summary), 1814 (Primary HTS)]
Type: functional
Conditions: not given

**Q.** With `O=S(=O)(Nc1ccc2[nH]c(-c3ccco3)nc2c1)c1ccccc1` as the compound, how does the EC50 read?
**A.** 14.8 µM (active)

**Q.** For `CCCCc1nc2cc(C(=O)N(C)C3CCOCC3)ccc2o1`, which EC50 is on record?
**A.** 1.36 µM (active)

**Q.** With `CCOCC(=O)Nc1nnc(C2CCCCC2)s1` as the compound, how does the EC50 read?
**A.** > 120 µM (not active)

**Q.** With `COc1ccc(NC(=O)Cn2nnc(-c3ccccc3NC(=O)c3cccs3)n2)cc1` as the compound, how does the EC50 read?
**A.** > 120 µM (not active)

**Q.** For `CCN1C(=O)/C(=C\N2CCCCCC2)SC1=S`, which EC50 is on record?
**A.** > 120 µM (not active)

**Q.** For `CCn1c(O)cc(=O)nc1SCC(=O)Nc1ccc(C)cc1`, which EC50 is on record?
**A.** > 120 µM (not active)

**Q.** Which EC50 does the source give for `Cc1sc2ncnc(N3CCC(C(=O)Nc4nc5ccc(Cl)cc5s4)CC3)c2c1C` here?
**A.** 8.58 µM (active)

**Q.** Which EC50 does the source give for `Sc1nnc(Cn2c(-c3ccccn3)nc3ccccc32)n1-c1ccc2c(c1)OCCO2` here?
**A.** 12.5 µM (active)

**Q.** Which EC50 does the source give for `COc1ccc(-n2nc(C(=O)NCC(=O)N3CCN(c4ccccc4F)CC3)c3ccccc3c2=O)cc1` here?
**A.** 27.8 µM (active)

**Q.** For `CCOC(=O)c1cnn(-c2ncnc3c2cnn3C)c1N`, which EC50 is on record?
**A.** 31.6 µM (active)

Target: T5, Cytochrome P450 1A2 (Homo sapiens, UniProt P05177);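 note: PubChem cytochrome P450 panel assay, CYP1A2 panel member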
T5 sequence (P05177 whole entry): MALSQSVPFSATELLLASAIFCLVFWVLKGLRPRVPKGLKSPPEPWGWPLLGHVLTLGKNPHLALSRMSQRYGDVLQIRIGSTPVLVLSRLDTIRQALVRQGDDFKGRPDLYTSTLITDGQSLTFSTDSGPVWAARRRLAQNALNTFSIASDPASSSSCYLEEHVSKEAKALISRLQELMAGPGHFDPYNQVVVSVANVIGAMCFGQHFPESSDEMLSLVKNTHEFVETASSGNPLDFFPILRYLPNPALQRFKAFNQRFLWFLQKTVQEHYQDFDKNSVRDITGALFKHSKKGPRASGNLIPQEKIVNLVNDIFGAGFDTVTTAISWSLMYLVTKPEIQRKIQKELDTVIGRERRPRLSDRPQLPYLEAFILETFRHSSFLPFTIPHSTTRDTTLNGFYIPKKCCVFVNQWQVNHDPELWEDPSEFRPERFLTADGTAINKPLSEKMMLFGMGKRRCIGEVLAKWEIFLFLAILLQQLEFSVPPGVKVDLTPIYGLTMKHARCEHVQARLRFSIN
Conditions: not given

**Q.** For `Cc1c(N2C(=O)/C(=C3/C(=O)N(C)c4ccccc43)SC2=S)c(=O)n(-c2ccccc2)n1C`, which AC50 is on record?
**A.** 25.1 µM (inconclusive)
